Results as given in patent EP0528486A2, “Non-substrate inhibitors of farnesyl protein transferase” (MERCK & CO. INC., priority 1991, dated 1993).
Where a SMILES comes first, the peptide text is derived from it.

Experiments:
Type in all cases: biochemical, bovine
[1] = target: T1, farnesyl-protein transferase (Bos taurus, UniProt P29702+P49355); assay: Inhibition of Ras farnesylation in vitro; settings: Ras-CVLS at 3.5 µM, 0.25 µM [³H]FPP, partially purified enzyme; average of 2-5 determinations; read-out: IC₅₀
T1 construct: partially pure bovine brain farnesyl-protein transferase; from tissue; host or cells: bovine brain (cerebral lobes)
Experimental: Polyisoprenylation of Ras- [³H]Farnesyl diphosphate (FPP) (20 Ci/mmol) was purchased from New England Nuclear. Farnesyl-protein transferase activity assays were carried out at 30°C unless noted otherwise. A typical reaction contained (in a final volume of 50 µl):[³H]farnesyl diphosphate, Ras protein (3.5µM), 50 mM HEPES, pH 7.5, 5 mM MgCl₂ 5 mM dithiothreitol and farnesyl-protein transferase. After thermally pre-equilibrating the assay mixture in the absence of enzyme, reactions were initiated by the addition of farnesyl-protein transferase and stopped at timed intervals by the addition of 1M HCl in ethanol (1 mL). The quenched reactions were allowed to stand for 15 minutes (to complete the precipitation process). After adding 2 mL of 100% ethanol, the reactions were vacuum-filtered through Whatmann GF/C filters. Filters were washed four time with 2 mL aliquots of 100% ethanol, mixed with scintillation fluid (10 mL) and then counted in a Beckmann LS3801 scintillation couter.
For inhibition studies, assays were run as described above, except putative inhibitors were added at the concentration indicated, IC₅₀ values were determined with both farnesyl-protein transferase substrates at their KM concentrations. The KM for Ras protein substrate having the CAAX sequence, CVLS, is 3.5 µM and the KM for FPP is 0.25µM.
Ras proteins used as substrates were expressed in E. coli and purified. […]

[2] = target: T1, farnesyl-protein transferase; assay: Tetrapeptides tested as farnesylation substrates (TLC / autoradiography); settings: for Farnesylation Substrate: peptide 200 µM, partially pure bovine farnesyl-protein transferase, 0.5 µM [3H] FPP, 30 min. at 30°C
Text: When a peptide was used as the acceptor substrate, there were two changes to the assay: (1) Ras protein was excluded and, (2) the reactions were stopped by the additon of one tenth volume of 0.5 M EDTA. A portion of the reaction mixture was spotted onto a TLC plate (silica gel 60 thin layer chromatography plates (20 cm x 20 cm, 0.25 mm layer thickness) were from E. Merck (Darrnstadt) and eluted with either ethyl acetate:pyridine: acetic acid:water (10:5:1:3) or n-propanol:water (7:3) elution systems. After drying under vacuum, the plates were sprayed with En³Hance and exposed to X-ray film at -70°C.
CAAX tetrapeptides and other tetrapeptides including Cys-Xaa¹-Xaa²-Xaa³-NRR¹ were tested as farnesylation substrates using [³H]FPP and partially pure bovine brain farnesyl-protein transferase. […] Thin layer chromatography (TLC) conditions were developed which resolved the substrates farnesyl diphosphate (Rf = 0.06) and CVLS (Rf = 0.28) and product S-farnesyl-CVLS (Rf = 0.58). These Rf values reflect TLC conditions using ethylacetate:pyridine: acetic acid:water (10:5:1:3) as the eluent. In another elution system, n-propanol:water (7:3), farnesyl-diphosphate (Rf= 0.18) was readily seperated from farnesylated tetrapeptides (examples: CAIS (Rf=0.84) and CAIM (Rf=0.83)). Quenched reaction mixtures containing peptide, farnesyl-diphosphate and farnesyl-protein transferase were separated by TLC followed by visualization of the radioactive species by autoradiography. […] Control peptides having a Cys to Ser substitution were not substrates.
The indicated peptides at 200 µM were incubated with partially pure bovine farnesyl-protein transferase and 0.5 µM [3H] FPP for 30 min. at 30°C. Autoradiographic exposure time was overnight (15-20 hr).

[3] = target: T1, farnesyl-protein transferase; assay: Mechanism of inhibition using homogenous, pure farnesyl-protein transferase
Experimental: To prepare pure enzyme, the nonapeptide, […], was covalently bound to Affigel-10 under anhydrous conditions as described by the manufacturer (15 µmol peptide per 1 mL of Affigel-10). Unreacted resin was treated with ethanolamine. After multiple passes of ω-aminooctyl-agarose-column-purified protein over the peptide column, the column was washed and eluted as described by Reiss, et al., (1990) ibid, to recover farnesyl-protein transferase activity.

CSCC[C@H](NC(=O)[C@H](Cc1ccccc1)NC(=O)[C@@H](NC(=O)[C@@H](N)CS)C(C)C)C(N)=O [CVFM-NH₂, Cys-Val-Phe-Met-NH₂] (H-CVFM-NH2)
IC50 [1]: 2.3 µM | Farnesylation Substrate [2]: - (< 1% conversion)

CC(C)C[C@H](NC(=O)[C@@H](NC(=O)[C@@H](N)CS)C(C)C)C(=O)N[C@@H](CO)C(N)=O [CVLS-NH₂, Cys-Val-Leu-Ser-NH₂] (H-CVLS-NH2)
mechanism of inhibition with respect to Ras-CVLS protein substrate [3]: competitive inhibitor | mechanism of inhibition with respect to farnesyl diphosphate [3]: not a competitive inhibitor | IC50 [1]: 16 µM | farnesylation substrate (result in words, TLC autoradiography) ([2]; [³H]FPP, partially pure bovine brain farnesyl-protein transferase): do not serve as effective substrates | Farnesylation Substrate [2]: - (< 1% conversion)
